In patent US20250195521A1 (Revolution Medicines, Inc., priority 2020, published 2025):
Where two headings read alike, the source gives them in different places.

Experiments:
[1] = tested on: NCI-H358 cells (K-Ras G12C); assay: CellTiter-Glo cell viability, NCI-H358; type: cell-based, human; conditions: K-Ras G12C, 5-day treatment, read-out: H358 Cell Viability IC50
Procedure, shortened: (§1)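 Luminescence read on day 5 after ~30 min room-temperature equilibration; compounds added directly to plated cells. Values = (sample signal/avg DMSO)*100, four-parameter logistic fit.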

[2] = tested on: Capan-1 cells (K-Ras G12V); assay: CellTiter-Glo cell viability, Capan-1; type: cell-based, human; conditions: K-Ras G12V, 5-day treatment, read-out: Capan-1 Cell Viability IC50
Procedure, shortened: as §1

KRAS G13D = KRAS G13D (Homo sapiens (Human), UniProt P01116+P62937, G13D); assay: Ras-Raf disruption/FRET/MOA assay (BRAF RBD, Cyclophilin A); type: biochemical; conditions: read-out: KRAS G13D FRET data IC50
Sequence of KRAS G13D (P01116 other isoform, or with tags, fused parts or gaps G13D): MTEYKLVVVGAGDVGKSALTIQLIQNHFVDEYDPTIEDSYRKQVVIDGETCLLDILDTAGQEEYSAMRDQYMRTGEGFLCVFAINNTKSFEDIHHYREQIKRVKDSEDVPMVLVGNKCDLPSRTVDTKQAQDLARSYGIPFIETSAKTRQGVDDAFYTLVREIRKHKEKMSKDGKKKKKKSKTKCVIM
Sequence of KRAS G13D (P62937 whole entry): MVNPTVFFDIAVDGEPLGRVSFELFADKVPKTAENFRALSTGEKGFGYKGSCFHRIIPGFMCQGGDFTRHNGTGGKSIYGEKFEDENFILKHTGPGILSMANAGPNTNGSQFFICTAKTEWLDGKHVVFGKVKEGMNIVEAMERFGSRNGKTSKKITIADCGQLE
Procedure, shortened: (§2)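 First, 25 μM Cyclophilin A, 12.5 nM His6-Ras-GMPPNP and 50 nM GST-BRAF RBD are mixed with diluted compound at pH 7.3. Next, 3 h at 25° C. Then 10 nM anti-His Eu-W1024 plus 50 nM anti-GST allophycocyanin for 1.5 h before TR-FRET reading.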

KRAS G13C = KRAS G13C (Homo sapiens (Human), UniProt P01116+P62937, G13C); assay: as above; type: biochemical; conditions: read-out: KRAS G13C FRET IC50
Sequence of KRAS G13C (P01116 other isoform, or with tags, fused parts or gaps G13C): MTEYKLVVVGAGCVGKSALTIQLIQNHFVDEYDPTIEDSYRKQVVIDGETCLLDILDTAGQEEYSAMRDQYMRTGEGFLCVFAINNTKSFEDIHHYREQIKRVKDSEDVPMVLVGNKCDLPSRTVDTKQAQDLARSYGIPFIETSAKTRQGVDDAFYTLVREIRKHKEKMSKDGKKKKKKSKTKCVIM
Sequence of KRAS G13C (P62937 whole entry): as the sequence (P62937 whole entry) above
Procedure, shortened: as §2

KRAS Q61H = KRAS Q61H (Homo sapiens (Human), UniProt P01116+P62937, Q61H); assay: as above; type: biochemical
Sequence of KRAS Q61H (P01116 other isoform, or with tags, fused parts or gaps Q61H): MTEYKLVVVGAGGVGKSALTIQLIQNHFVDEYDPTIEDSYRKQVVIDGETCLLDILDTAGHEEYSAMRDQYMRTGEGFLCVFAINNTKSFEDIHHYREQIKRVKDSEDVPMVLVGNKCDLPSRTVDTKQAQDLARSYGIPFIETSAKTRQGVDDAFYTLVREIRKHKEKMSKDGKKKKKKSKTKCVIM
Sequence of KRAS Q61H (P62937 whole entry): as the sequence (P62937 whole entry) above
Procedure, shortened: as §2

KRAS G12V = KRAS G12V (Homo sapiens (Human), UniProt P01116+P62937, G12V); assay: as above; type: biochemical; conditions: read-out: KRAS G12V FRET IC50
Sequence of KRAS G12V (P01116 other isoform, or with tags, fused parts or gaps G12V): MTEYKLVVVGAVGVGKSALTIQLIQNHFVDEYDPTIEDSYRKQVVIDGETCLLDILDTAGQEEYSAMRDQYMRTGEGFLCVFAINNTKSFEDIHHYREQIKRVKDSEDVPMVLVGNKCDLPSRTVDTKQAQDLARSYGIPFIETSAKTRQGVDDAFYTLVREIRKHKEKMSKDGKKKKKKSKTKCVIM
Sequence of KRAS G12V (P62937 whole entry): as the sequence (P62937 whole entry) above
Procedure, shortened: as §2

NRAS Q61K = NRAS Q61K (Homo sapiens (Human), UniProt P01111+P62937, Q61K); assay: as above; type: biochemical
Sequence of NRAS Q61K (P01111 whole entry Q61K): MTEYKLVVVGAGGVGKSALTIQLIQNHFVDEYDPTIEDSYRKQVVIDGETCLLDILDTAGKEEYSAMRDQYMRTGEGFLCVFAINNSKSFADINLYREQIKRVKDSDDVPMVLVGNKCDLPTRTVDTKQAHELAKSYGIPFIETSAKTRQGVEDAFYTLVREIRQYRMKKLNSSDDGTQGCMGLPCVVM
Sequence of NRAS Q61K (P62937 whole entry): as the sequence (P62937 whole entry) above
Procedure, shortened: (§3)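 Measured: compound-facilitated Cyclophilin A:Ras complex blocking RAF RBD binding. Conditions: 12.5 nM Ras-GMPPNP, 50 nM BRAF RBD, 25 μM CypA, 3 h plus 1.5 h detection. Output: IC50 from TR-FRET ratio.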

KRAS G12D = KRAS G12D (Homo sapiens (Human), UniProt P01116+P62937, G12D); assay: as above; type: biochemical; conditions: read-out: KRAS G12D FRET IC50
Sequence of KRAS G12D (P01116 other isoform, or with tags, fused parts or gaps G12D): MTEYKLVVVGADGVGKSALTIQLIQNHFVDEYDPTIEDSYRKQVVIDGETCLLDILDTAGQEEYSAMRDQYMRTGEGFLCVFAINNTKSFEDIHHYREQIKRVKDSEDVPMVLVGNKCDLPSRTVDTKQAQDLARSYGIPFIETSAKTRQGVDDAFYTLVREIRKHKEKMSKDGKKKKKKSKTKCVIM
Sequence of KRAS G12D (P62937 whole entry): as the sequence (P62937 whole entry) above
Procedure, shortened: as §2

KRAS G12C = KRAS G12C (Homo sapiens (Human), UniProt P01116+P62937, G12C); assay: as above; type: biochemical; conditions: read-out: KRAS G12C FRET IC50
Sequence of KRAS G12C (P01116-2 other isoform, or with tags, fused parts or gaps G12C): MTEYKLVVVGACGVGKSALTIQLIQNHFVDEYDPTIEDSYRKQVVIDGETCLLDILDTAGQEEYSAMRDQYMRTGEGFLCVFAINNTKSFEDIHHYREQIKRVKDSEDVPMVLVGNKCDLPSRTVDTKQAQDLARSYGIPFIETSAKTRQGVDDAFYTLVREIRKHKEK
Sequence of KRAS G12C (P62937 whole entry): as the sequence (P62937 whole entry) above
Procedure, shortened: as §2

NRAS WT = NRAS WT (Homo sapiens (Human), UniProt P01111+P62937); assay: as above; type: biochemical
Sequence of NRAS WT (P01111 whole entry): as the sequence (P01111 whole entry Q61K) above, with K61Q counted along it
Sequence of NRAS WT (P62937 whole entry): as the sequence (P62937 whole entry) above
Procedure, shortened: as §3

KRAS G12S = KRAS G12S (Homo sapiens (Human), UniProt P01116+P62937, G12S); assay: as above; type: biochemical; conditions: read-out: KRAS G12S FRET IC50
Sequence of KRAS G12S (P01116 other isoform, or with tags, fused parts or gaps G12S): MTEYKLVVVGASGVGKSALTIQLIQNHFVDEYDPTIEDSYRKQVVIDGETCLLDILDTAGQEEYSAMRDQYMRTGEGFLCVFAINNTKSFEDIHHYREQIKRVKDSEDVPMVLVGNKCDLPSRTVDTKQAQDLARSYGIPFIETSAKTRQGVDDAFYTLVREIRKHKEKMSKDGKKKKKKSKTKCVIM
Sequence of KRAS G12S (P62937 whole entry): as the sequence (P62937 whole entry) above
Procedure, shortened: as §2

KRAS WT = KRAS WT (Homo sapiens (Human), UniProt P01116+P62937); assay: as above; type: biochemical; conditions: read-out: KRAS WT FRET data IC50
Sequence of KRAS WT (P01116 other isoform, or with tags, fused parts or gaps): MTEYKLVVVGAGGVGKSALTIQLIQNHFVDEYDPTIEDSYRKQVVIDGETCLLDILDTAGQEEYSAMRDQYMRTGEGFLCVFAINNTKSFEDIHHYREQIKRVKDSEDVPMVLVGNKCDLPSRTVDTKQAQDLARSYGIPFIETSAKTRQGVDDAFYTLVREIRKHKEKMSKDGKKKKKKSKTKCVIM
Sequence of KRAS WT (P62937 whole entry): as the sequence (P62937 whole entry) above
Procedure, shortened: as §2

NRAS G12C = NRAS G12C (Homo sapiens (Human), UniProt P01111+P62937, G12C); assay: as above; type: biochemical; conditions: read-out: NRAS G12C FRET data IC50
Sequence of NRAS G12C (P01111 whole entry G12C): as the sequence (P01111 whole entry Q61K) above, with G12C, K61Q counted along it
Sequence of NRAS G12C (P62937 whole entry): as the sequence (P62937 whole entry) above
Procedure, shortened: as §3

NRAS Q61R = NRAS Q61R (Homo sapiens (Human), UniProt P01111+P62937, Q61R); assay: as above; type: biochemical
Sequence of NRAS Q61R (P01111 whole entry Q61R): as the sequence (P01111 whole entry Q61K) above, with K61R counted along it
Sequence of NRAS Q61R (P62937 whole entry): as the sequence (P62937 whole entry) above
Procedure, shortened: as §3

NCI-H358 (K-Ras G12C) = assay: CellTiter-Glo cell viability assay, NCI-H358; type: cell-based, human; conditions: Homo sapiens, NCI-H358, 120 h, 5-day treatment; read-out: H358 Cell Viability assay data (K-Ras G12C, IC50)
Procedure, shortened: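 Luminescent CellTiter-Glo read-out on day 5 after compound exposure; signal expressed as percent of mean DMSO control; four-parameter logistic fit gives the value.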

[3] = biological target: K-Ras G12C(GMP-PNP) binding to BRAF RBD (Homo sapiens (Human), UniProt P01116+P62937, G12C); assay: Disruption of BRAF RBD interaction with K-Ras (FRET / MOA assay), K-Ras G12C; type: biochemical; conditions: read-out: KRAS G12C FRET IC50
Sequence of K-Ras G12C(GMP-PNP) binding to BRAF RBD (P01116 other isoform, or with tags, fused parts or gaps G12C): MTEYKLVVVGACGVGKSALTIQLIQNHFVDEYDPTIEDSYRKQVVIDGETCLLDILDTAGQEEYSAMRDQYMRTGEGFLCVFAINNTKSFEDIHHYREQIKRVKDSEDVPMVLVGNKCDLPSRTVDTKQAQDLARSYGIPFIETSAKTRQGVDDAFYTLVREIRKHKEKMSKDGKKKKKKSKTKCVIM
Sequence of K-Ras G12C(GMP-PNP) binding to BRAF RBD (P62937 whole entry): as the sequence (P62937 whole entry) above
Procedure, shortened: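 Cpd 10-pt 3-fold dilution, top 30 μM final; Ras/CypA/BRAF RBD mix 3 h, 25° C. Add anti-His Eu-W1024 10 nM + anti-GST APC 50 nM final, 1.5 h. Readout TR-FRET ratio decrease vs DMSO → IC50.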

[4] = tested on: K-Ras G12C (NCI-H358 cells); assay: Potency assay: pERK in NCI-H358 cells; type: cell-based, human; conditions: Homo sapiens; NCI-H358 cells, 4 hours; read-out: pERK EC50 (H358 KRAS G12C)
Procedure, shortened: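 Cells plated the day before were exposed for 4 h at 37° C, 5% CO2 to a 10-point, 3-fold DMSO dilution series (10 mM top stock), in duplicate. Phospho-ERK was read by AlphaLISA SureFire Ultra or by In-Cell Western with DRAQ5 DNA stain, and IC50 came from a 4-parameter sigmoidal fit.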

IC50 ([1]; Homo sapiens, NCI-H358, 120 h) [nM]	IC50 (KRAS G13D) [nM]	IC50 (KRAS G13C) [nM]	IC50 (KRAS Q61H) [nM]	IC50 (KRAS G12V) [nM]	IC50 (NRAS Q61K) [nM]	IC50 (KRAS G12D) [nM]	IC50 (KRAS G12C) [nM]	IC50 (NRAS WT) [nM]	IC50 (KRAS G12S) [nM]	IC50 (KRAS WT) [nM]	IC50 (NRAS G12C) [nM]	IC50 (NRAS Q61R) [nM]	IC50 [1] [nM]	IC50 (NCI-H358 (K-Ras G12C)) [nM]	IC50 [3] [nM]	EC50 [4] [nM]	SMILES	IC50 ([2]; Homo sapiens, CAPAN-1, 120 h) [nM]	IC50 [2] [nM]
	1000 to 10000	1000 to 10000		1000 to 10000	1000 to 10000	1000 to 10000	1000 to 10000	1000 to 10000	1000 to 10000	1000 to 10000	1000 to 10000	1000 to 10000		> 10000	1000 to 10000		CCn1c(-c2cccnc2[C@H](C)OC)c2c3cc(ccc31)-c1csc(n1)C[C@H](NC(=O)[C@H](C(C)C)N(C)C(=O)N1C[C@@H]3CCN(C)C[C@@H]31)C(=O)N1CCC[C@H](N1)C(=O)OCC(C)(C)C2 [Compound A516]	100 to 1000	
< 10					100 to 1000			100 to 1000			10 to 100	10 to 100				< 5000	CCn1c(-c2cc(N3CCN(C)CC3)cnc2[C@H](C)OC)c2c3cc(ccc31)-c1csc(n1)C[C@H](NC(=O)[C@H](C(C)C)N(C)C(=O)C1OCC[C@@H]1c1ccccc1)C(=O)N1CCC[C@H](N1)C(=O)OCC(C)(C)C2 (stereo partly drawn) [Compound A583]	< 10	

More lines, now with the values behind:

SMILES	IC50 ([1]; Homo sapiens, NCI-H358, 120 h) [nM]	IC50 (KRAS G13D) [nM]	IC50 (KRAS G13C) [nM]	IC50 (KRAS Q61H) [nM]	IC50 (KRAS G12V) [nM]	IC50 (NRAS Q61K) [nM]	IC50 (KRAS G12D) [nM]	IC50 (KRAS G12C) [nM]	IC50 (NRAS WT) [nM]	IC50 (KRAS G12S) [nM]	IC50 (KRAS WT) [nM]	IC50 (NRAS G12C) [nM]	IC50 (NRAS Q61R) [nM]	IC50 [1] [nM]	IC50 (NCI-H358 (K-Ras G12C)) [nM]	IC50 [3] [nM]	EC50 [4] [nM]	IC50 ([2]; Homo sapiens, CAPAN-1, 120 h) [nM]	IC50 [2] [nM]
CCn1c(-c2cccnc2[C@H](C)OC)c2c3cc(ccc31)-c1csc(n1)C[C@H](NC(=O)N1CCC1)C(=O)N1CCC[C@H](N1)C(=O)OCC(C)(C)C2 [Compound A368]	100 to 1000	1000 to 10000	100 to 1000	100 to 1000	100 to 1000	100 to 1000	1000 to 10000	100 to 1000	100 to 1000	100 to 1000	100 to 1000	100 to 1000						100 to 1000	
CCn1c(-c2cccnc2[C@H](C)OC)c2c3cc(ccc31)-c1csc(n1)C[C@H](NC(=O)[C@H](C(C)C)N(C)C(=O)N1[C@H](C)CN(C)C[C@@H]1C)C(=O)N1CCC[C@H](N1)C(=O)OCC(C)(C)C2 [Compound A272]		1000 to 10000	1000 to 10000	100 to 1000	> 10000	1000 to 10000	1000 to 10000	1000 to 10000	1000 to 10000	1000 to 10000	1000 to 10000	1000 to 10000	1000 to 10000					1000 to 10000	
CCn1c(-c2cccnc2[C@H](C)OC)c2c3cc(ccc31)-c1csc(n1)C[C@H](NC(=O)[C@H](C(C)C)N(C)C(=O)N1CC(OC)C1)C(=O)N1CCC[C@H](N1)C(=O)OCC(C)(C)C2 [Compound A354]		1000 to 10000	100 to 1000	100 to 1000	100 to 1000	100 to 1000	1000 to 10000	100 to 1000		100 to 1000		100 to 1000		100 to 1000					100 to 1000
CCn1c(-c2cccnc2[C@H](C)OC)c2c3cc(ccc31)-c1csc(n1)C[C@H](NC(=O)[C@H](C(C)C)N(C)C(=O)[C@H]1[C@@H]3CNC[C@@H]31)C(=O)N1CCC[C@H](N1)C(=O)OCC(C)(C)C2 [Compound A448]		1000 to 10000	1000 to 10000			1000 to 10000	1000 to 10000	1000 to 10000	1000 to 10000	1000 to 10000	1000 to 10000	1000 to 10000	1000 to 10000				< 5000	> 10000	
CCn1c(-c2cccnc2[C@H](C)OC)c2c3nc(ccc31)-c1csc(n1)C[C@H](NC(=O)[C@H](C(C)C)N(C)C(=O)N1CC(OC)C1)C(=O)N1CCC[C@H](N1)C(=O)OCC(C)(C)C2 [Compound A613, N-((2S)-1-(((6^3S,4S,Z)-1^1-ethyl-1^2-(2-((S)-1-methoxyethyl)pyridin-3-yl)-10,10-dimethyl-5,7-dioxo-6^1,6^2,6^3,6^4,6^5,6^6-hexahydro-1^1H-8-oxa-2 (4,2)-thiazola-1 (5,3)-pyrrolo [3,2-b]pyridina-6 (1,3)-pyridazinacycloundecaphane-4-yl)amino)-3-methyl-1-oxobutan-2-yl)-3-methoxy-N-methylazetidine-1-carboxamide]	100 to 1000	1000 to 10000	1000 to 10000		1000 to 10000	100 to 1000	1000 to 10000	1000 to 10000	1000 to 10000	1000 to 10000	1000 to 10000	1000 to 10000	1000 to 10000		10 to 100	100 to 1000		100 to 1000	
CCn1c(-c2cccnc2[C@H](C)OC)c2c3cc(ccc31)-c1csc(n1)C[C@H](NC(=O)[C@H](C(C)C)N(C)C(=O)N1C[C@H]3CCN(C)C[C@H]31)C(=O)N1CCC[C@H](N1)C(=O)OCC(C)(C)C2 [Compound A517]	1000 to 10000	1000 to 10000	1000 to 10000		1000 to 10000	1000 to 10000	1000 to 10000	1000 to 10000	1000 to 10000	1000 to 10000	1000 to 10000	1000 to 10000	1000 to 10000				< 5000	100 to 1000	
